Structures are written as SMILES. Counter-ions that a name gives are not always drawn.

For the first data set, the target named is T1, human-derived recombinant PTPase-1B (hPTP-1B) (Homo sapiens, UniProt P18031).
T1 sequence (P18031 1-435): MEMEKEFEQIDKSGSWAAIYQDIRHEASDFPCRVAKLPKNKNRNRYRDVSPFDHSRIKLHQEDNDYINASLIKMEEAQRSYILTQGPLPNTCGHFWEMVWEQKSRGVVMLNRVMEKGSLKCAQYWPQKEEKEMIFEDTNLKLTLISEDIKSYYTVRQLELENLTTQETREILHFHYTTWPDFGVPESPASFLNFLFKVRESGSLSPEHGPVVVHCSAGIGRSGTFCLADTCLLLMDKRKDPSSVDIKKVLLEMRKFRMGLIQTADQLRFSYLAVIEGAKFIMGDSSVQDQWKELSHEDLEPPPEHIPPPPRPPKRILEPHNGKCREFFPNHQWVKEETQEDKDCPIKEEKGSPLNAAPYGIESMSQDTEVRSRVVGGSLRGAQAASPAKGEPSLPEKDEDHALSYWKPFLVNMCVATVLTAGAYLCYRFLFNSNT
As to the kind of experiment: PTP-1B inhibition assay (DIFMUP fluorescence kinetic assay). The settings on record: inhibitor at 40 μM; 20 μM DIFMUP; 1 nM enzyme; calculated from average velocity Va vs control. The class given is biochemical. Here is the method:
Measurement of PTPase activity: Compounds are assayed in an enzyme activity-based assay. PTP-1B is known to dephosphorylate phosphopeptides. This assay is a fluorescence intensity based kinetic assay, taking advantage of a non-peptidyl substrate, 6,8-difluoro-4-methylumbelliferyl phosphate (DIFMUP). When excited at 358 nm, the dephosphorylated product of DIFMUP emits at 450 nm.
Examples 1-5 (set forth below) were analyzed as follows. The assay was conducted in black 384-well non-treated plates (Costar#3710). The assay buffer contained 50 mM 3,3-dimethyl glutaric acid, pH 7.0, 48 mM NaCl, 1 mM EDTA. Inhibitors were prepared as DMSO solution and diluted to desired concentrations using 50 mM HEPES, pH 7.4. PTP-1B was diluted to a 2.5 nM working stock using the assay buffer containing additional 0.001% (w/v) hydrogenated Triton X-100. DIFMUP was diluted to 40 μM using the assay buffer. 5 μl of inhibitor was first dispensed into assay plate. In cases of control reactions, 5 μl of the assay buffer was dispensed. This was followed by 25 μl of DIFMUP working stock. The reaction was then initiated by the addition of 20 μl of PTP-1B working stock. The final DIFMUP concentration was 20 μM (˜1.6×Km). The final enzyme concentration was 1 nM and the detergent concentration was 0.0004% (w/v). Typical inhibitor concentrations were from 0.08 to 40 μM. The reaction progress was monitored continuously for 30 min.
Calculations: For data analysis, the last five data points were used to obtain a slope corresponding to the estimated steady-state velocity (Vs), and the overall progress curves were used to obtain the average velocity (Va), by linear regression in both cases. The apparent final potency of inhibitor (Kiapp) was then calculated from Vs data, using the standard hyperbolic inhibition equation. The IC50 values were calculated from Va data using the sigmoidal inhibition equation. % inhibition values were calculated from Va values of inhibitor at 40 μM, and the average Va value of control reactions.
For `COc1ccc2cc(C(=O)O)ccc2c1CNCc1ccc(OC(F)(F)F)cc1` [Example 1, 6-Methoxy-5-({[4-(trifluoromethoxy)benzyl]amino}methyl)-2-naphthoic acid], the inhibition (in general, the change of the read-out against control, counted positive when it falls) at 40 µM is 50%.

`COc1ccc2cc(C(=O)O)ccc2c1CNCc1ccc(S(N)(=O)=O)cc1` [Example 3, 5-({[4-(Aminosulfonyl)benzyl]amino}methyl)-6-methoxy-2-naphthoic acid]: the inhibition at 40 µM is 23%.

For `O=C(O)COc1ccc2cc(C(=O)O)ccc2c1CNCc1ccc(OC(F)(F)F)cc1` [Example 5, 6-(Carboxymethoxy)-5-({[4-(trifluoromethoxy)benzyl]amino}methyl)-2-naphthoic acid], the inhibition at 40 µM is 38%.

With `COc1ccc2cc(C(=O)O)ccc2c1CNCc1ccc(F)cc1` [Example 2, 5-{[(4-Fluorobenzyl)amino]methyl)-6-methoxy-2-naphthoic acid], the inhibition at 40 µM is 37%.

As to `COc1ccc2cc(C(=O)O)ccc2c1CNCc1ccc(N(C)C)cc1` [Example 4, 5-({[4-(Dimethylamino)benzyl]amino}methyl)-6-methoxy-2-naphthoic acid], the inhibition at 40 µM is 34%.

System in a further data set: not given
Assay: not given
Conditions: not given
Consider `COc1ccc2cc(C(=O)O)ccc2c1CNCc1ccc(S(N)(=O)=O)cc1` (as salt: salt) [Example 3, 5-({[4-(Aminosulfonyl)benzyl]amino}methyl)-6-methoxy-2-naphthoic acid], for which the melting point (in general, the temperature of the solid-liquid transition) is 283 to 285 °C (dec.).

In the case of `COc1ccc2cc(C(=O)O)ccc2c1CNCc1ccc(F)cc1` (as salt: salt) [Example 2, 5-{[(4-Fluorobenzyl)amino]methyl)-6-methoxy-2-naphthoic acid], the melting point was 268 to 270 °C (dec.).

Consider `O=C(O)COc1ccc2cc(C(=O)O)ccc2c1CNCc1ccc(OC(F)(F)F)cc1` [Example 5, 6-(Carboxymethoxy)-5-({[4-(trifluoromethoxy)benzyl]amino}methyl)-2-naphthoic acid], for which the melting point is > 266 °C (dec.).

On to `COc1ccc2cc(C(=O)O)ccc2c1CNCc1ccc(OC(F)(F)F)cc1` (as salt: salt) [Example 1, 6-Methoxy-5-({[4-(trifluoromethoxy)benzyl]amino}methyl)-2-naphthoic acid], for which the melting point lay in the range of 235 to 237 °C.

Consider `COc1ccc2cc(C(=O)O)ccc2c1CNCc1ccc(N(C)C)cc1` (as salt: salt) [Example 4, 5-({[4-(Dimethylamino)benzyl]amino}methyl)-6-methoxy-2-naphthoic acid], for which the melting point was > 215 °C (dec.).

These data come from US6849761B2, “Substituted naphthoic acid derivatives useful in the treatment of insulin resistance and hyperglycemia” (Wyeth, priority 2002, dated 2005).
